PubChem BioAssay (NCI)
Values joined by “and” are separate entries in the source; they are usually repeats but may differ in a detail not shown here. Equal values may be shown once.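 Values below derive from 48-hour exposures of cells grown in 96-well plates, with endpoints linearly interpolated between the two concentrations bracketing the appropriate inhibition level. GI50 marks 50% less growth. Definition used: TGI = concentration required for complete inhibition of growth.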

What was measured:
Assay in all cases: inhibition of tumour cell growth, NCI panel, 48 h
[1] = tested on: 786-0 renal
[2] = tested on: A498 renal
[3] = tested on: CAKI-1 renal
[4] = tested on: HOP-92 NSCLC
[5] = tested on: MDA-MB-231 breast
[6] = tested on: NCI-H23 lung
[7] = tested on: OVCAR-5 ovarian
[8] = tested on: SK-MEL-28 melanoma
[9] = tested on: SNB-19 CNS
[10] = tested on: TK-10 renal

SMILES	GI50 [1]	TGI [1]	GI50 [2]	TGI [2]	GI50 [3]	TGI [3]	GI50 [4]	TGI [4]	GI50 [5]	TGI [5]	GI50 [6]	TGI [6]	GI50 [7]	TGI [7]	GI50 [8]	TGI [8]	GI50 [9]	TGI [9]	GI50 [10]	TGI [10]
Nc1ncnc2c1c(C(F)(F)F)cn2[C@@H]1O[C@H](CO)[C@@H](O)[C@H]1O	2.15 µM	> 100 µM	0.0936 µM	1.95 µM	0.49 µM	> 100 µM	0.222 µM	6.62 µM	0.652 µM	> 100 µM	0.153 µM	5.29 µM	1.02 µM	> 72.2 µM	1.29 µM	6.13 µM	0.793 µM	> 100 µM	0.926 µM	> 100 µM
Cc1ccc(Cl)cc1Nc1nc(C(F)(F)F)ccc1C(=O)Nc1cccc(C(F)(F)F)c1	3.16 µM	11.8 µM	2.97 µM	8.59 µM	4.14 µM	18.1 µM	2.2 µM	8.69 µM	2.29 µM	9.63 µM	2.63 µM	11.9 µM	2.59 µM	11.4 µM	4.55 µM	18.3 µM	3.59 µM	14.6 µM	5.58 µM	17.8 µM
CCCS(=O)(=O)Nc1ccc(F)c(C(=O)c2c[nH]c3ncc(-c4ccc(Cl)cc4)cc23)c1F	4.13 µM and 5.43 µM	26.2 µM and > 10 µM	1.72 µM and 2.59 µM	12.3 µM and > 8.97 µM	2.63 µM and 2.81 µM	16.5 µM and > 10 µM	2.63 µM and 4.84 µM	12.5 µM and > 10 µM	3.98 µM and 5.16 µM	18.9 µM and > 10 µM	7.82 µM and > 10 µM	26.6 µM and > 10 µM	10.2 µM and > 9.13 µM	30 µM and > 10 µM	0.0369 µM and 0.0422 µM	2.98 µM and 0.696 µM	6.56 µM and > 10 µM	29.6 µM and > 10 µM	5.99 µM and 5.48 µM	34.6 µM and > 10 µM
CC[C@@]1(O)C(=O)NCc2c1cc1n(c2=O)Cc2cc3ccccc3nc2-1	1.63 µM	9.93 µM	3.95 µM	53.1 µM	0.754 µM	11 µM	–	> 29.4 µM	> 100 µM	> 100 µM	1.8 µM	5.86 µM	15.1 µM	> 100 µM	> 53.7 µM	> 100 µM	1.92 µM	> 100 µM	> 100 µM	> 100 µM
COc1ccc(-c2oc(=O)ccc2C#Cc2cc(OC)c(OC)c(OC)c2)cc1O	24.8 µM	> 100 µM	30 µM	76.8 µM	32.8 µM	> 100 µM	5.47 µM	31.2 µM	11.6 µM	> 100 µM	22.3 µM	81.2 µM	> 100 µM	> 100 µM	37.7 µM	> 100 µM	31.4 µM	> 100 µM	83.9 µM	> 100 µM
CN1/C(=C\C(I)C(I)C2=[N+](C)c3ccccc3C2(C)C)C(C)(C)c2ccccc21 (centres undefined)	0.904 µM	16.2 µM	0.178 µM	1.49 µM	0.974 µM	> 38.6 µM	0.0931 µM	1.23 µM	0.773 µM	20.9 µM	0.114 µM	9.33 µM	1.25 µM	> 70.5 µM	0.522 µM	19.8 µM	0.291 µM	40.3 µM	0.521 µM	27.9 µM
CC(CN=C(CC(=O)c1ccc(Br)cc1)c1ccccc1)N=C(CC(=O)c1ccc(Br)cc1)c1ccccc1 (centres undefined)	4.2 µM	> 100 µM	38.8 µM	> 100 µM	67.1 µM	> 100 µM	11.5 µM	78.8 µM	> 100 µM	> 100 µM	8.9 µM	> 100 µM	> 100 µM	> 100 µM	> 100 µM	> 100 µM	> 100 µM	> 100 µM	7.56 µM	> 100 µM
O=c1[nH]cc(CS(=O)(=O)Cc2c[nH]c(=O)[nH]c2=O)c(=O)[nH]1	–	> 100 µM	–	> 100 µM	–	> 100 µM	–	> 100 µM	–	> 100 µM	–	> 100 µM	–	> 100 µM	–	> 100 µM	–	> 100 µM	–	> 100 µM
S=c1nc(-c2nc(=S)[nH]c3c2CCCCCCCCCC3)c2c([nH]1)CCCCCCCCCC2	–	> 100 µM	–	> 100 µM	–	> 100 µM	–	> 100 µM	–	> 100 µM	–	> 100 µM	–	> 100 µM	–	> 100 µM	–	> 100 µM	–	> 100 µM
Cc1ccc2nc3c(C)c(Cl)c(=O)cc-3sc2c1	–	> 100 µM	–	> 100 µM	–	> 100 µM	–	> 92.3 µM	–	15.8 µM	–	34.3 µM	–	> 95.8 µM	–	99.2 µM	–	> 100 µM	–	> 100 µM
O=C1NC(=O)/C(=C/C=C/c2ccccc2)S1	0.366 µM	4.27 µM	0.373 µM	18.8 µM	0.46 µM	8.86 µM	11.1 µM	> 81.1 µM	30.4 µM	> 100 µM	1.74 µM	> 41.4 µM	14.1 µM	> 100 µM	15.5 µM	36 µM	1.42 µM	20.3 µM	28.6 µM	> 100 µM
C/C(=C\c1ccc(Cl)cc1)C(C)(C)C(=O)O	–	> 100 µM	–	> 100 µM	–	> 100 µM	–	> 100 µM	–	> 100 µM	–	> 100 µM	–	> 100 µM	–	> 100 µM	–	> 100 µM	–	> 100 µM
Nc1ccc(-c2nc3ccc4[nH]ncc4c3c3c2CCCC3)cc1F	1.6 µM	10.3 µM	0.636 µM	3.24 µM	0.323 µM	3.64 µM	1.7 µM	11.2 µM	1.71 µM	30.5 µM	1.54 µM	7.96 µM	2.42 µM	23 µM	1.81 µM	6.86 µM	2.48 µM	32.1 µM	0.828 µM	22.4 µM
Cc1ccc2c(c1)C(=O)c1c-2n(CCCN)c(=O)c2cc([N+](=O)[O-])ccc12	0.0576 µM	0.208 µM	5.68 µM	17.1 µM	0.0716 µM	0.419 µM	0.435 µM	1.18 µM	0.293 µM	0.827 µM	0.356 µM	1.16 µM	0.873 µM	1.58 µM	2.27 µM	4.63 µM	0.178 µM	0.706 µM	0.567 µM	1.24 µM
CCOC1OCCCC1Br (centres undefined)	–	> 100 µM	–	> 100 µM	–	> 100 µM	–	> 100 µM	–	> 100 µM	–	> 100 µM	–	> 100 µM	–	> 100 µM	–	> 100 µM	–	> 100 µM
